# Results reported in paper PMC11199504, “New hemisynthetic derivatives of sphaeropsidin phytotoxins triggering severe endoplasmic reticulum swelling in cancer cells” (Scientific Reports, 2024).
# Columns and labels:
# Drug-resistant models = assay: MTT assay, mean of drug-resistant models; type: cell-based; conditions: 72 h, read-out: IC50 determined by MTT assays, mean of drug-resistant models
# Text: (§1) Cancer cell lines were obtained from either the European Collection of Cell Cultures (ECACC; Salisbury, UK) or the American Type Culture Collection (ATCC; Manassas, VA). The two glioma cell lines were the U373 (ECACC code 08061901) and Hs683 (ATCC HTB-138) cell lines. The carcinoma cell lines were the A549 non-small cell carcinoma cell line (ATCC code CCL 185) and the MCF-7 mammary breast carcinoma cell line (ATCC code HTB-22). The melanoma cell lines were the mouse B16F10 cells (ATCC code CRL-6475) and the human SKMEL-28 cells (ATCC code HTB-72). The ovarian cancer cell line A2780 and its cisplatin-resistant subline A2780cis were obtained from Sigma-Aldrich (St. Louis, MO, USA). Colon cancer HCT116 cells were obtained from ATCC (CCL-247) and the oxaliplatin-resistant subline HCT116/OxR established in the W. Berger lab[59]. The HeLa cell derivative KB-3-1 and the colchicine-selected, highly ABCB1-overexpressing subline KB-C-1 were generously donated by Dr. D. W. Shen, Bethesda, MD. RKOp53wt colon cancer cells together with the RKOp53KO (homozygous knock-out) subline[60] were generously provided by Dr. Vogelstein from John Hopkins University, Baltimore. The correct origin of all cell models was confirmed by STR during performance of the experiments. All cell lines were cultured in RPMI1640 culture medium supplemented with 10% heat-inactivated fetal bovine serum, 2% L-glutamine (0.6 mg/mL), 2% penicillin/streptomycin (200 IU/mL and 200 μg/mL) and 0.1 mg/mL gentamicin.
# (§2) The MTT (3-(4,5-dimethylthiazol-2-yl)-2,5-diphenyl tetrazolium bromide) colorimetric assay has been conducted as described previously. Briefly, cells were seeded 24 h before their treatment with each compound for a period of 72 h. The concentrations tested ranged from 10 nM to 100 µM. Each assay was conducted in sextuplicates. The number of independent experiments is mentioned in the legend of the tables.
# SI Table 1: IC50 determined by MTT assays. Mean concentration (± standard deviation) in µM required to
# reduce the viability of cells by 50% after a 72 h treatment relative to the control.
# Parental sensitive models Drug-resistant models
# B16F10 = assay: MTT colorimetric assay, B16F10; type: cell-based; conditions: Mus musculus, B16-F10; 72 h treatment; mean ± SEM; sensitive to apoptosis; read-out: IC50 determined by MTT assays, B16F10
# Text: as §1, §2
# [1] = system: SKMEL-28 melanoma and U373 glioblastoma cells; assay: Morphological evaluation by phase contrast microscopy / videomicroscopy; type: cell-based, human
# Description: For the morphological evaluation of the effects induced by compounds 1 and 13, 6 × 10^4 cells were seeded on glass coverslips placed in 6 well plates a minimum 24 h before their treatment. At the end of the incubation period with the treatment, coverslips were rinsed once in PBS buffer and directly mounted on slides to allow visualization of the cell with an Axio.Imager.M2 microscope (G X40 and G X100).
# [2] = biological target: caspase-like activity of the proteasome (Homo sapiens, UniProt P28072); assay: Cellular proteasomal caspase-like activity; type: cell-based
# Description: The chemotrypsin-like, trypsin-like and caspase-like activities of the proteasome were evaluated in cells with the G8660, G8861 and G8761 kits respectively according to the manufacturer’s instructions (Promega, USA). Briefly, the assays are based on the use of short amino-acid sequences coupled with luciferin and that can be specifically cleaved by each catalytic unit of the proteasomal complex. For this purpose, cells were seeded in 96 well plates 24 h before their treatment with 1 (5 µM), 13 (1 µM) for 6 h or with the positive control MG132 (1 µM) for 24 h. At the end of the treatments, cells were washed three times with PBS and permeabilized with digitonin (0.5 mg/mL; 50 µL per well) under shaking for 10 min. Then, 50 µL of a mixture of the substrate of interest and luciferase were added for 15 min under slow shaking. Luminescence levels quantified with the Active-Glo LR-100 luminometer (DSLabs, Suisse) were normalized according the number of viable cells evaluated in parallel in the same conditions by means of MTT assay.
# [3] = system: SK-MEL-28 human melanoma and U373 glioblastoma cells; assay: ER swelling / vacuole origin (CellLight ER-GFP, brightfield, TEM); type: cell-based; conditions: SK-MEL-28 and U373 cells
# Text: To decipher the origin of vacuoles, fluorescent probes staining different cellular compartments were used: the lysosomal Red DND-99 LysoTracker®, the glibenclamide Red ER tracker®, the green FM MitoTracker® that were all purchased from Lifes Technologies (Invitrogen, Belgium) and used according to manufacturer’s instructions. The CellLight ER-GFP (Thermofisher, Belgium) staining of the ER is based on the transfection of a plasmid coding for a fusion protein made of GFP fused to the ER signal sequence of calreticulin and the KDEL ER retention signal. Briefly, 6 × 10^4 cells were seeded on glass coverslips in 6 well plates. After a minimum of 24 h, cells were treated or not with the compounds of interest. Note that concentration and duration of the treatment were determined separately for each compound prior to the experiment on the basis of the apparition of marked morphological changes in phase contrast microscopy. Sixteen hours before the end of the experiment, 4 µL/well of the reagent were added to allow transfection and expression of the GFP-fused protein by the cells. Coverslips were then washed twice in PBS and mounted on slides without fixation step to take captions with the Axio.Imager.M2 microscope (Carl Zeiss, Belgium). To evaluate the cellular distribution of 13, the Axio.Imager.M2 was specifically equipped with an M340L4 excitation source (Thorlabs) and the pseudoconfocal Zeiss ZEN deconvolution system kindly provided for demo by Carl Zeiss (Belgium) to allow direct visualization of the compound 13 itself thanks to its intrinsic fluorescent properties.
# For TEM, cells were fixed with glutaraldehyde 2.5% (EM grade, Electron Microscopy Sciences, EMS) at 4 °C overnight, washed tree times in cacodylate buffer (pH 7.4) and postfixed 1 h at room temperature in 1% OsO4, (EMS), 1.5% potassium ferrocyanide (Sigma-Aldrich) in 0.15 M cacodylate buffer. This was immediately followed by a second incubation in 1% OsO4 for 1 h at room temperature. After washing in distilled water, samples were stained with 1% uranyl acetate (EMS) and serially dehydrated in increasing ethanol concentrations. Samples were then embedded in epoxy resin (Agar 100 resin, Agar Scientific Ltd) and left to polymerize for 2 days at 60 °C. Ultrathin sections (50–70 nm thick) were collected with a Leica UC6 ultra-microtome on formvar-carbon-coated copper grids and further stained with uranyl acetate and lead citrate by standard procedures. Observations were made on a Tecnai 10 transmission electron microscope (FEI) and images were captured with a Veleta camera and processed with SIS iTEM software (Olympus).
# Sequence of caspase-like activity of the proteasome (P28072 whole entry): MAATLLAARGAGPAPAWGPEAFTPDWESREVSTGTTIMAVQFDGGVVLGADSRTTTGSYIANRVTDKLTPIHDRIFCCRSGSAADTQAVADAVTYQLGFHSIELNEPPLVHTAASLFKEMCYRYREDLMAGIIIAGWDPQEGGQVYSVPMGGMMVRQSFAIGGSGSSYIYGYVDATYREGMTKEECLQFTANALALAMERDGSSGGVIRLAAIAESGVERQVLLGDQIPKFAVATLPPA
SMILES,IC50 (Drug-resistant models) [µM],IC50 (B16F10) [µM],time to cellular shrinkage ([1]; SKMEL-28 and U373) [h],"effect on caspase-like proteasomal activity ([2]; 1 at 5 µM, 6 h)",ER swelling / ER-derived vacuolization [3],time to severe vacuolization ([1]; SKMEL-28 and U373 respectively) [h],"inhibition at 1 µM ([2]; 13 at 1 µM, 6 h of treatment, both SKMEL-28 and U373) [%]"
"C=C[C@]1(C)C=C2C(=O)[C@@]3(O)OC(=O)[C@@]4(CCCC(C)(C)[C@H]34)[C@@]2(O)CC1 [Compound 1, sphaeropsidin A, reference compound]",4,1.55 ± 0.27,≤ 6,stimulate caspase-like activity,–,–,–
CC1(C=CCCCc2ccc3ccc4cccc5ccc2c3c45)C=C2C(=O)C3(O)OC(=O)C4(CCCC(C)(C)C34)C2(O)CC1 (stereo not drawn) [Compound 13],2,0.29 ± 0.01,–,–,severe swelling of the ER,15 to 24,> 60
CC1(C=CCCCc2ccc3ccc4cccc5ccc2c3c45)C=C2C(O)C3(O)OC(=O)C4(CCCC(C)(C)C34)C2(O)CC1 (stereo not drawn) [Compound 16],9,5.11 ± 0.42,–,–,severe ER-swelling,–,–
